Source: patent US11261435B2, “Chemical-inducible genome engineering technology” (AGENCY FOR SCIENCE, TECHNOLOGY AND RESEARCH, priority 2015, dated 2022)

Assays:
EMX1 locus [1] = assay: Surveyor cleavage assay at the EMX1 locus in HEK293 cells; type: cell-based, human; conditions: for switching ratio: harvested 96 hours after transfection
Description: FIG. 29|Effect of enzyme dosage on the level of background activity, shown as gel images. Different amounts of an iCas-bearing plasmid were transfected together with an EMX1-targeting sgRNA into HEK293 cells. These cells were harvested 96 hours after transfection for the Surveyor cleavage assay. DNA modification was clearly observed when 1 μg of plasmid was utilised, even in the absence of the inducer. […] The switching ratio was improved from 2.83 to 4.16 and 7.96 respectively. […] Arrows indicate the height of the expected cleavage bands.

EMX1 locus [2] = assay: Illumina deep sequencing of INDELs at the EMX1 locus in HEK293 cells; type: cell-based, human; conditions: for time at which leaky activity was first detected: without 4-hydroxytamoxifen (0 nM)
FANCF locus = assay: Surveyor assay, genome modification at the FANCF locus in HEK293 cells; type: cell-based, human; conditions: for cleavage bands with 4HT: 100 nM or 1000 nM 4HT for 24 hours
Description: FIG. 16|Genome modification at the FANCF locus in HEK293 cells, the data represented as images showing the results and the concentration of gene induction. 24 hours after transfection with Cas9 variant 27, 29, or 30, the cells were either harvested immediately (0 hour time point) or were exposed to 0 nM, 100 nM or 1000 nM 4HT for another 24 hours before genomic DNA was isolated and analysed by the Surveyor assay. Arrows indicate the expected cleavage bands. […] Furthermore, the leakiness in editing activity became more pronounced over time, as indicated by the increase in INDEL frequency from 2.5% to 7.7% for variant 27 and from 2.9% to 3.5% for variant 29.
At 24 hours after transfection with a FANCF-targeting plasmid, cells were treated with or without tamoxifen for another 24 hours before genomic DNA was isolated and analysed by the Surveyor assay (FIG. 10).

[3] = system: VEGFA promoter, WAS, TAT, and FANCF genes; assay: Surveyor assay at VEGFA, WAS, TAT and FANCF genomic loci in HEK293 cells; type: cell-based, human; conditions: 1 μM 4-HT
Source text: (§1) The editing activity continued to increase with longer treatment durations.

TAT locus = assay: Surveyor assay at the TAT locus in cancer cell lines; type: cell-based, human; conditions: 1 μM 4HT; MCF7, DLD1 and HCT116
Description: FIG. 18|Genome modification at the TAT locus in different cancer cell lines. The efficiency of iCas was tested in the breast cancer cell line MCF7, as well as in the colorectal cancer cell lines DLD1 and HCT116, the results of which are shown as gel images. Based on the Surveyor assays, genome modifications were detected after the cells were treated with 1 μM 4HT for 6 hours. The INDEL frequency increased when the treatment duration was lengthened to 8 hours for all the cell lines tested. Arrows indicate the expected cleavage bands.
as §1

[4] = system: known Cas9 off-target sites of the EMX1, VEGFA, FANCF, WAS, and TAT sgRNAs; assay: Surveyor assay at known Cas9 off-target sites; type: cell-based, human
Description: The specificity of iCas was tested using seven distinct guide RNAs (gRNAs), the results of which are shown in three-dimensional column graphs. […] (n≥2 replicates for each on-target site; n≥3 replicates for each EMX1 off-target site; n≥1 replicate for other off-target sites.)
To assess the DNA cleavage specificity of iCas, the modification of known Cas9 off-target sites of the EMX1, VEGFA, FANCF, WAS, and TAT sgRNAs was measured.

CTNNB1 locus = assay: Surveyor assay at the CTNNB1 locus in STF3A-Tet-On cells; type: cell-based
Wnt signalling pathway = assay: Wnt-responsive luciferase reporter assay in STF3A-TetOn cells; type: cell-based; conditions: CTNNB1-targeting sgRNA; chemical 6 hours, harvested after another 72 hours
Description: Cells were treated for 6 hours with the respective chemical and then harvested after another 72 hours to allow sufficient time for changes in β-catenin or luciferase protein levels.
The cells were then trypsinised and re-seeded equally into a Corning 96-well flat clear bottom white plate. Samples were assayed for luciferase activity using Dual-Glo Luciferase (Promega) according to manufacturer's instructions. All measurements were taken using the i-control software for Tecan microplate readers. All firefly luciferase measurements were normalized to the corresponding renilla luciferase readings.

β-catenin = β-catenin transcript (qRT-PCR) and protein (Western blot) levels; type: cell-based, human; conditions: inducer 6 hours, harvested after another 72 hours
Description: Subsequently, they were harvested for analysis after another 72 hours. […] Error bars reflect the standard deviation from at least three biological replicates.
Proteins from whole cell lysates, nuclear fractions, and cytosolic fractions were loaded in equal amounts for SDS PAGE and then transferred onto a nitrocellulose membrane for western blot. The primary antibodies used were α-V5 (Life Technologies, 1:8000 dilution), α-3PGDH (Santa Cruz, 1:1000 dilution), and α-total histone H3 (Abcam, 1:10000 dilution). Primary antibodies were diluted in TBST+5% milk and incubated overnight at 4° C. Secondary antibodies were used at a 1:2500 dilution in TBST+5% milk. Membranes were exposed after addition of WesternBright Sirius HRP substrate (Advansta).

HEK293 cells = assay: Immunohistochemical staining, nuclear localization of (ERT2)2-Cas9-(ERT2)2; type: cell-based, human; conditions: no 4-HT; 24 hours after transfection
Description: To verify the results from the Surveyor assays and deep sequencing experiments, immunohistochemical staining was performed to determine the subcellular localization of the three variants, all of which contained two copies of ERT2 at both termini of the enzyme ((ERT2)2-Cas9-(ERT2)2), with or without 1 μM 4-HT. 24 hours after transfection with plasmids carrying a Cas9 variant and a sgRNA targeting the EMX1, VEGFA, FANCF, WAS, or TAT genomic locus, the cells were either fixed immediately and stained with anti-V5 or were subjected to 6 h or 24 h 4-HT treatment before fixation and staining (FIG. 15). […] Most of the protein translocation occurred within the first 6 hours of 4-hydroxytamoxifen treatment.
Paraformaldehyde-fixed HEK293 cells were first incubated with blocking solution (10% FBS in 0.1M PBS) (JR Scientific Inc) for 30 minutes and then quenched with 3% hydrogen peroxide. Next, the samples were incubated for 2 hours at room temperature or 4° C. overnight with primary antibody specific against the V5 epitope tag (Life Technologies) in blocking solution. Negative controls were incubated with blocking solution without any primary antibody. Subsequently, the samples were thoroughly washed with PBS and then incubated for 1 hour at room temperature with secondary horseradish peroxidase (HRP)-conjugated antibody (GE Healthcare UK Ltd). […]

HEK293-iCas cells = assay: Immunofluorescence localization of iCas in the stable line; type: cell-based, human
Description: FIG. 6|Toggling the activity of iCas on and off (a,b) Immunofluorescence images (a) and quantification (b) of iCas in HEK293-iCas cells either untreated (N.A.) or treated with 4-HT and then fixed at 0, 48, or 72 h after removal of 4-HT from the culture medium. DAPI, nuclear staining; V5, antibody specific for V5-tagged Cas9. Scale bar, […]. In (b), at least 300 cells were counted for each sample and time point. Data represent mean±s.d. from three biological replicates. n.s., not significant (P>0.25); **P<0.001, Student's t-test. (c) Surveyor assay detection of genome modification in HEK293 cells after two cycles of transfection and 4-HT treatment (4-HT 1 and 4-HT 2). A sgRNA targeting the WAS locus was transfected first, and a sgRNA targeting the ASXL2 locus second. Arrows indicate the expected cleavage bands.
In principle, a conditional system such as iCas should allow users to generate stable cell lines and induce its activity whenever needed. […] The cell line was verified to be functional (FIG. 25a) and monitored the intracellular localization of iCas by immunofluorescence (FIG. 6a). Without 4-hydroxytamoxifen, most cells produced an iCas protein that was localized in the cytoplasm; only 15% of the cells contained nuclear-localized protein. […] The inducer was then washed away and the cells immunostained with anti-V5 antibody at 48 and 72 hours after removal of 4-hydroxytamoxifen.

[5] = system: EMX1, TAT, and WAS genomic loci; assay: Benchmarking of post-translational control systems by Surveyor assay and deep sequencing; type: cell-based, human
Source text: Arrows indicate the expected cleavage bands.

[6] = system: EMX1 and ADAR1 genomic loci; assay: Multiplex genome editing, Surveyor assay; type: cell-based, human
Description: Besides single gene targeting, the ability of iCas to perform multiplex genome engineering was compared with that of intein-Cas9 or split-Cas9. HEK293 cells were co-transfected with a sgRNA targeting EMX1 and another sgRNA targeting a coding exon of ADAR1 (ADAR), and subsequently the extent of genome modification was analysed by the Surveyor assay.

PARP4 gene = assay: Surveyor assay at PARP4 in the HEK293-iCas stable line; type: cell-based, human; conditions: 1 μM 4HT for 24 hours; after at least two weeks of passaging
Description: FIG. 27|Temporal switching of iCas activity. […] To assess the functionality of this cell line, a lentivirus expressing a sgRNA targeting one of the coding exons of the PARP4 gene was generated, and HEK293-iCas cells were infected the virus. After puromycin selection and continuous passaging of the cells for at least two weeks, the cells were treated with or without 1 μM 4HT for 24 hours before harvesting them for analysis using the Surveyor assay. […] When the cells are treated with 4HT, the iCas enzyme is expected to translocate into the nucleus and be able to edit the DNA (these cells are depicted as yellow). However, when the inducer has been removed for more than 72 hours, the iCas protein is expected to translocate out of the nucleus and thus no more editing will be anticipated.

WAS locus and ASXL2 = assay: Toggling of iCas activity, Surveyor assay; type: cell-based, human
Description: Subsequently, the possibility of toggling the activity of iCas was explored (FIG. 25b). After 1 μM 4-hydroxytamoxifen treatment of HEK293 cells co-transfected with iCas and a first sgRNA targeting the WAS locus, the inducer was removed and 72 hours waiting time was allowed to pass, thereby allowing nuclear-localized iCas protein to exit the nucleus before introducing a second sgRNA targeting a coding exon of ASXL2. The cells were then either treated with 4-hydroxytamoxifen a second time or left untreated.

[7] = absence of 4HT, harvested 24 hours after transfection (0 hour time point)

4-hydroxytamoxifen [4HT, reference compound]
4HT concentration for maximum activation of the inducible genome editing system (EMX1 locus [1]; 10, 100, 1000 nM tested, Surveyor assay and deep sequencing): at least 100 nM

variant 27: NLS-TGGGS-ERT2-PRGGS-ERT2-TPESGA-Cas9-NLS-ERT2-PAG-ERT2 (SEQ ID NO. 246)
duration of 4-hydroxytamoxifen treatment at which cleavage activity appears to plateau (EMX1 locus [1]; Surveyor assay): around 8 hours | duration of 4-hydroxytamoxifen treatment after which a low level of DNA editing was revealed (EMX1 locus [2]): 2 h | time at which leaky activity was first detected (EMX1 locus [2]): 6 h | INDEL frequency (FANCF locus; 0 nM 4HT for another 24 hours): 7.7% | cleavage bands with 4HT (FANCF locus): strong cleavage bands were observed | INDEL frequency (FANCF locus; [7]): 2.5%

variant 29: NLS-TG-ERT2-GGSPRGGS-ERT2-TPESGA-Cas9-NLS-ERT2-PAG-ERT2 (SEQ ID NO. 248)
duration of 4-hydroxytamoxifen treatment at which cleavage activity appears to plateau (EMX1 locus [1]; Surveyor assay): around 8 hours | duration of 4-hydroxytamoxifen treatment after which a low level of DNA editing was revealed (EMX1 locus [2]): 2 h | time at which leaky activity was first detected (EMX1 locus [2]): 2 h | INDEL frequency (FANCF locus; 0 nM 4HT for another 24 hours): 3.5% | cleavage bands with 4HT (FANCF locus): strong cleavage bands were observed | INDEL frequency (FANCF locus; [7]): 2.9%

variant 30: NL-TGGGS-ERT2-PRGGS-ERT2-TPESGA-Cas9-NLS-ERT2-PAGGGS-ERT2 (SEQ ID NO. 249); hereafter referred to as iCas
switching ratio (EMX1 locus [1]; 0.25 μg plasmid): 7.96 | switching ratio (EMX1 locus [1]; 0.5 μg plasmid): 4.16 | switching ratio (EMX1 locus [1]; 1 μg of plasmid): 2.83 | duration of 4-hydroxytamoxifen treatment at which cleavage activity appears to plateau (EMX1 locus [1]; Surveyor assay): around 8 hours | time point at which leaky activity was observed (EMX1 locus [1]; without 4-hydroxytamoxifen (0 nM), Surveyor assay): 48 h | duration of 4-hydroxytamoxifen treatment after which a low level of DNA editing was revealed (EMX1 locus [2]): 2 h | time at which leaky activity was first detected (EMX1 locus [2]): 16 h | cleavage bands with 4HT (FANCF locus): strong cleavage bands were observed | cleavage band in the absence of 4HT (FANCF locus; no 4HT): no cleavage band was detected | duration of 4-hydroxytamoxifen treatment until nuclease activity, all loci tested [3]: ≤ 4 h | duration of 4HT treatment after which genome modifications were detected (TAT locus): 6 h | cleavage at the two EMX1 off-target sites ([4]; EMX1 sgRNA, 1 μM 4-hydroxytamoxifen up to 24 hours): did not yield any measurable cleavage | duration of 4HT treatment after which off-target effects were observed ([4]; gRNAs targeting VEGFA promoter first site, TAT locus, FANCF locus): 16 h | duration of inducer treatment until modification of the target locus (CTNNB1 locus; 1 μM 4-hydroxytamoxifen or 1 μg/ml doxycycline): ≤ 6 h | cleavage bands in the absence of 4-hydroxytamoxifen (CTNNB1 locus; any time point): No cleavage bands were observed | luciferase activity (Wnt signalling pathway): significant decrease in luciferase activity | amount of β-catenin protein relative to the original level (β-catenin; co-transfected with β-catenin-targeting sgRNA, Western blot): less than 20% | transcript level of β-catenin (β-catenin; β-catenin-targeting sgRNA, qRT-PCR): significant decrease | nuclear localization in the absence of 4-hydroxytamoxifen, versus variant 27 or variant 29 (HEK293 cells): significantly less nuclear localization | cells containing nuclear-localized protein (HEK293-iCas cells; 24 hour treatment with 4-hydroxytamoxifen): 48% | cells containing nuclear-localized protein (HEK293-iCas cells; 72 hours after removal of 4-hydroxytamoxifen): not significantly different from that of the pre-induction state | cells containing nuclear-localized protein (HEK293-iCas cells; without 4-hydroxytamoxifen): 15% | switching ratio compared with intein-Cas9 ([5]; Surveyor assay, EMX1 and WAS loci): significantly higher ratios than intein-Cas9 | induction time needed to reach the INDEL frequency of split-Cas9 after approximately 96 hours ([5]; deep sequencing): 12 h | background activity without the inducer ([5]; no inducer): comparable levels of leakiness | editing of two genomic loci simultaneously ([6]; 12 hours of chemical treatment): generated INDELs at both the EMX1 and ADAR1 genomic loci | editing of two genomic loci simultaneously ([6]; 24 hours of chemical treatment): produced more genome modification than at 12 hours | cleavage bands with or without 4HT in the stable line (PARP4 gene): Cleavage bands (indicated by arrows) were observed for the treated cells, but not for the untreated cells | cleavage after two cycles of transfection, treated twice with the inducer (WAS locus and ASXL2; 1 μM 4-hydroxytamoxifen after first and second transfection): cleavage activity was readily observed at both targeted loci | cleavage after two cycles of transfection, inducer after the first transfection only (WAS locus and ASXL2; 4-hydroxytamoxifen after the first but not the second transfection): cleavage was detected only at the WAS locus
